Test results reported in patent US20150360047A1, “Cosmetic Biophotonic Compositions” (KLOX TECHNOLOGIES INC., priority 2012, published 2015).

Test: Absorption/emission spectra and photobleaching of chromophores and chromophore combinations
Type: physicochemical
Description: The photodynamic properties of (i) Fluorescein sodium salt at about 0.09 mg/mL, (ii) Eosin Y at about 0.305 mg/mL, and (iii) a mixture of Fluorescein sodium salt at about 0.09 mg/mL and Eosin Y at about 0.305 mg/mL, all in a gel (12% carbamide) were evaluated. A flexstation 384 II spectrophotometer was used to measure emitted fluorescence with the following parameters: mode fluorescence, excitation 460 nm, emission spectra 465-750 nm. The absorbance was read using a synergy HT microplate reader: mode absorbance; spectra between 300-650 nm. The absorption and emission spectra are shown in FIGS. 8A and 8B which indicate an energy transfer between the chromophores in the combination. It is to be reasonably inferred that this energy transfer can also occur in biophotonic compositions of the present disclosure. […]
The photodynamic properties of (i) Fluorescein sodium salt at 0.18 mg/mL final concentration, (ii) Eosin Y at about 0.305 mg/mL, and (iii) a mixture of Fluorescein sodium salt at about 0.18 mg/mL and Eosin Y at about 0.305 mg/mL in an aqueous solution were evaluated. A flexstation 384 II spectrophotometer was used to measure emitted fluorescence with the following parameters: mode fluorescence, excitation 460 nm, emission spectra 465-750 nm. The absorbance was read using a synergy HT microplate reader: mode absorbance; spectra between 300-650 nm. […]

For O=C([O-])c1ccccc1-c1c2cc(Br)c(=O)c(Br)c-2oc2c(Br)c([O-])c(Br)cc12.[Na+].[Na+] [Eosin Y], the Photobleaching during illumination (with Fluorescein in aqueous solution, Example 4) was “Photobleaching of Eosin Y was observed” and the Photobleaching during illumination (with Fluorescein in gel (12% carbamide), Example 3) was “Photobleaching of Eosin Y was observed”.
